Measured values from ChEMBL document CHEMBL6177991, “Discovery of P11-2: A Potent First-in-Class MNK1-Targeting PROTAC Degrader for the Treatment of Cancer” (J Med Chem, 2025).
Active and inactive are the calls of the source. The rule behind the calls is not given here.

Experiments:
[1] = tested on: MV4-11; experiment: Anti-proliferative activity against human MV4-11 cells measured after 72 hrs by CCK8 assay; details: MV4-11, 72 h
[2] = tested on: MM1.S; experiment: Anti-proliferative activity against human MM1.S cells measured after 120 hrs by CCK8 assay
[3] = tested on: MOLM-13; experiment: Anti-proliferative activity against human MOLM-13 cells measured after 72 hrs by CCK8 assay; details: MOLM-13, 72 h
[4] = tested on: MDA-MB-231; experiment: Anti-proliferative activity against human MDA-MB-231 cells measured after 96 hrs by CCK8 assay; details: MDA-MB-231, 96 h
[5] = target: MAP kinase-interacting serine/threonine-protein kinase 1 (Homo sapiens, UniProt Q9BUB5); experiment: Inhibition of recombinant MNK1 (unknown origin) using TATKSGSTTKNR peptide as substrate preincubated for 5 mins followed by ATP addition and measured after 40 mins by ADP-Glo kinase assay
Chain of MAP kinase-interacting serine/threonine-protein kinase 1 (Q9BUB5 whole entry): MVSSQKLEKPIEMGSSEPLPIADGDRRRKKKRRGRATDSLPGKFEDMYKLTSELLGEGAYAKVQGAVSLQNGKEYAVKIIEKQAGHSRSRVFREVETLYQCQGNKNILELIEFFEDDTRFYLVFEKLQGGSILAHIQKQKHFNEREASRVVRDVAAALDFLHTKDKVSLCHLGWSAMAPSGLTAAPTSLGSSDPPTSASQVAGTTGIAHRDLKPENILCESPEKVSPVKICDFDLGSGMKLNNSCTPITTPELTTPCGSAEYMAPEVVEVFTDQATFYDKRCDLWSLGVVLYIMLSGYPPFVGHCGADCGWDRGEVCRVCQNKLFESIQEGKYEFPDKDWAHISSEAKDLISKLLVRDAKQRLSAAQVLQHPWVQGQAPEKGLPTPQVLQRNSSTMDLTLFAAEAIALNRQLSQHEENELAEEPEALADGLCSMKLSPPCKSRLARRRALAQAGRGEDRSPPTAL

[6] = tested on: MV4-11; experiment: Induction of apoptosis in human MV4-11 cells assessed as necrotic cells at 300 nM incubated for 24 hrs by Annexin V-FITC/PI dual staining based flow cytometric analysis (reference value: 0.16 %); assay type: functional
[7] = Toxicity in nude female NSG mouse xenografted with human MV4-11 cells assessed as change in body weight at 20 mg/kg, ip qd administrated for 16 days; assay type: organism-based; details: in vivo, 384 h, time 16 day
[8] = tested on: MV4-11; experiment: Induction of apoptosis in human MV4-11 cells assessed as late apoptotic cells at 300 nM incubated for 24 hrs by Annexin V-FITC/PI dual staining based flow cytometric analysis (reference value: 1.48 %); assay type: functional
[9] = tested on: MV4-11; experiment: Antitumor activity against human MV4-11 cells xenografted in nude female NSG mouse assessed as tumor growth inhibition at 20 mg/kg, ip qd administrated for 16 days by caliper method relative to control; assay type: functional; details: MV4-11, 384 h, time 16 day, read-out: TGI
[10] = tested on: MV4-11; experiment: Induction of MNK2 degradation in human MV4-11 cells at 300 to 1000 nM incubated for 24 hrs by immunoblot analysis; assay type: cell-based; details: dose 300-1000 nM
[11] = tested on: MV4-11; experiment: Induction of apoptosis in human MV4-11 cells assessed as viable cells at 300 nM incubated for 24 hrs by Annexin V-FITC/PI dual staining based flow cytometric analysis (reference value: 94.9 %); assay type: functional; details: read-out: Activity
[12] = tested on: MV4-11; experiment: Induction of apoptosis in human MV4-11 cells assessed as early apoptotic cells at 300 nM incubated for 24 hrs by Annexin V-FITC/PI dual staining based flow cytometric analysis (reference value: 3.42 %); assay type: functional

Compound	IC50 [1]	further results
O=C(CC(=O)N1CCC(C(=O)Nc2ncc(-c3ccccc3)s2)CC1)NCCCCC(=O)Nc1cccc2c1CN(C1CCC(=O)NC1=O)C2=O (stereo not drawn)	6.17 µM	
O=C1CCC(N2Cc3c(NC(=O)CCCOc4ccc(CC(=O)N5CCC(C(=O)Nc6ncc(-c7ccccc7)s6)CC5)cc4)cccc3C2=O)C(=O)N1 (stereo not drawn)	6.38 µM	
O=C1CCC(N2Cc3c(NC(=O)CCc4ccc(OCCCC(=O)N5CCC(C(=O)Nc6ncc(-c7ccccc7)s6)CC5)cc4)cccc3C2=O)C(=O)N1 (stereo not drawn)	> 10 µM	
O=C1CCC(N2Cc3c(NC(=O)CCCOc4ccc(CCC(=O)N5CCC(C(=O)Nc6ncc(-c7ccccc7)s6)CC5)cc4)cccc3C2=O)C(=O)N1 (stereo not drawn)	8.58 µM	
O=C1CCC(N2C(=O)c3cc(F)c(N4CCN(C(=O)CCCN5CCC(C(=O)Nc6ncc(-c7ccccc7)s6)CC5)CC4)cc3C2=O)C(=O)N1 (stereo not drawn)	8.47 µM	
O=C1CCC(N2Cc3c(NC(=O)CCCCCCCN4CCC(C(=O)Nc5ncc(-c6ccccc6)s5)CC4)cccc3C2=O)C(=O)N1 (stereo not drawn)	> 10 µM	
O=C1CCC(N2C(=O)c3cc(F)c(N4CCN(C(=O)CC(=O)N5CCC(C(=O)Nc6ncc(-c7ccccc7)s6)CC5)CC4)cc3C2=O)C(=O)N1 (stereo not drawn)	> 10 µM	
O=C1CCC(N2C(=O)c3cc(F)c(N4CCN(C(=O)CCCCCN5CCC(C(=O)Nc6ncc(-c7ccccc7)s6)CC5)CC4)cc3C2=O)C(=O)N1 (stereo not drawn)	> 10 µM	
O=C1CCC(N2Cc3c(NC(=O)CCCCCN4CCC(C(=O)Nc5ncc(-c6ccccc6)s5)CC4)cccc3C2=O)C(=O)N1 (stereo not drawn)	0.9 µM	IC50 [2]: 1.22 µM; IC50 [3]: 11.5 µM; IC50 [4]: 12.2 µM
O=C1CCC(N2Cc3c(NC(=O)CCc4ccc(OCCCCC(=O)N5CCC(C(=O)Nc6ncc(-c7ccccc7)s6)CC5)cc4)cccc3C2=O)C(=O)N1 (stereo not drawn)	> 10 µM	
O=C1CCC(N2C(=O)c3cc(F)c(N4CCN(C(=O)CCCCCC(=O)N5CCC(C(=O)Nc6ncc(-c7ccccc7)s6)CC5)CC4)cc3C2=O)C(=O)N1 (stereo not drawn)	4.08 µM	
O=C1CCC(N2Cc3c(NC(=O)CCCCOc4ccc(CCC(=O)N5CCC(C(=O)Nc6ncc(-c7ccccc7)s6)CC5)cc4)cccc3C2=O)C(=O)N1 (stereo not drawn)	9.89 µM	
O=C(CC(=O)N1CCC(C(=O)Nc2ncc(-c3ccccc3)s2)CC1)NCCOCC(=O)Nc1cccc2c1CN(C1CCC(=O)NC1=O)C2=O (stereo not drawn)	> 10 µM	
O=C(CC(=O)N1CCC(C(=O)Nc2ncc(-c3ccccc3)s2)CC1)NCCCCCCCC(=O)Nc1cccc2c1CN(C1CCC(=O)NC1=O)C2=O (stereo not drawn)	5.41 µM	
O=C1CCC(N2Cc3c(NC(=O)CCCCCCCCC(=O)N4CCC(C(=O)Nc5ncc(-c6ccccc6)s5)CC4)cccc3C2=O)C(=O)N1 (stereo not drawn)	5.21 µM	
O=C1CCC(N2C(=O)c3cc(F)c(N4CCN(C(=O)CCCCCCC(=O)N5CCC(C(=O)Nc6ncc(-c7ccccc7)s6)CC5)CC4)cc3C2=O)C(=O)N1 (stereo not drawn)	2.28 µM	IC50 [2]: 3.84 µM; IC50 [3]: 10 µM; IC50 [4]: > 20 µM

Compound	IC50 [1]	further results
O=C1CCC(N2Cc3c(NC(=O)CCCCOc4ccc(CC(=O)N5CCC(C(=O)Nc6ncc(-c7ccccc7)s6)CC5)cc4)cccc3C2=O)C(=O)N1 (stereo not drawn)	1.44 µM	IC50 [2]: 2.43 µM; IC50 [3]: 9.52 µM; IC50 [4]: > 20 µM
O=C(CCC(=O)N1CCC(C(=O)Nc2ncc(-c3ccccc3)s2)CC1)NCCCCCC(=O)Nc1cccc2c1CN(C1CCC(=O)NC1=O)C2=O (stereo not drawn)	> 10 µM	
O=C1CCC(N2Cc3c(NC(=O)CCCCC(=O)N4CCC(C(=O)Nc5ncc(-c6ccccc6)s5)CC4)cccc3C2=O)C(=O)N1 (stereo not drawn)	2.17 µM	
CN1C(=O)CCC(N2Cc3c(NC(=O)CCCCCC(=O)N4CCC(C(=O)Nc5ncc(-c6ccccc6)s5)CC4)cccc3C2=O)C1=O (stereo not drawn)	> 10 µM	
O=C1CCC(N2C(=O)c3cc(F)c(N4CCN(C(=O)CCCC(=O)N5CCC(C(=O)Nc6ncc(-c7ccccc7)s6)CC5)CC4)cc3C2=O)C(=O)N1 (stereo not drawn)	8.98 µM	IC50 [5]: 0.64 µM
O=C1CCC(N2Cc3c(NC(=O)CCCCCCC(=O)N4CCC(C(=O)Nc5ncc(-c6ccccc6)s5)CC4)cccc3C2=O)C(=O)N1 (stereo not drawn)	0.21 µM	IC50 [2]: 0.41 µM; IC50 [3]: 1.95 µM; IC50 [4]: 5.74 µM
O=C1CCC(N2C(=O)c3cc(F)c(N4CCN(C(=O)CCC(=O)N5CCC(C(=O)Nc6ncc(-c7ccccc7)s6)CC5)CC4)cc3C2=O)C(=O)N1 (stereo not drawn)	5.13 µM	
O=C1CCC(N2C(=O)c3cc(F)c(N4CCN(C(=O)CCCCN5CCC(C(=O)Nc6ncc(-c7ccccc7)s6)CC5)CC4)cc3C2=O)C(=O)N1 (stereo not drawn)	7.9 µM	
O=C1CCC(N2C(=O)c3cc(F)c(N4CCN(C(=O)CCCCC(=O)N5CCC(C(=O)Nc6ncc(-c7ccccc7)s6)CC5)CC4)cc3C2=O)C(=O)N1 (stereo not drawn)	> 10 µM	
CN1CCC(C(=O)Nc2ncc(-c3ccccc3)s2)CC1	3.32 µM	Activity [6]: 0.49%; Activity [7]: Non-toxic; IC50 [2]: 5.32 µM; Activity [8]: 3.75%; inhibition in vivo at 20 mg/kg [9]: 28%; IC50 [3]: 12.1 µM; Activity [10]: inactive; IC50 [4]: > 20 µM; viability at 0.3 µM [11]: 86.2%; IC50 [5]: 0.387 µM; Activity [12]: 9.59%
O=C1CCC(N2Cc3c(NC(=O)CCCCN4CCC(C(=O)Nc5ncc(-c6ccccc6)s5)CC4)cccc3C2=O)C(=O)N1 (stereo not drawn)	3.36 µM	
O=C1CCC(N2Cc3c(NC(=O)CCCCCCCC(=O)N4CCC(C(=O)Nc5ncc(-c6ccccc6)s5)CC4)cccc3C2=O)C(=O)N1 (stereo not drawn)	4.59 µM	
O=C(CC(=O)N1CCC(C(=O)Nc2ncc(-c3ccccc3)s2)CC1)NCCCCCCC(=O)Nc1cccc2c1CN(C1CCC(=O)NC1=O)C2=O (stereo not drawn)	0.86 µM	IC50 [2]: 1.91 µM; IC50 [3]: 6.96 µM; IC50 [4]: 17.6 µM
O=C(CC(=O)N1CCC(C(=O)Nc2ncc(-c3ccccc3)s2)CC1)NCCCCCC(=O)Nc1cccc2c1CN(C1CCC(=O)NC1=O)C2=O (stereo not drawn)	7.1 µM	
O=C1CCC(N2Cc3c(NC(=O)CCCCCCN4CCC(C(=O)Nc5ncc(-c6ccccc6)s5)CC4)cccc3C2=O)C(=O)N1 (stereo not drawn)	4.89 µM	
